According to ChEMBL document CHEMBL5728586, “Substituted 6-azabenzimidazole compounds” (2021):

Molecular target: Mitogen-activated protein kinase kinase kinase kinase 1 (Homo sapiens, UniProt Q92918)
Assay: Enzymatic Activity Assay: Recombinant HPK1 kinase domain produced via baculovirus infection of insect cells was obtained from Proteros (Proteros Biostructures #PR-0322) and was pre-activated in the presence of 2 mM ATP (Sigma-Aldrich, cat #GE27-2056-01) and 2 mM magnesium chloride for 16 hours at 4° C. The protein reaction mixture was then loaded to a desalting column (Thermo Fisher Scientific, Cat #89889) to remove excess ATP. HPK1 was eluted with buffer containing 20 mM Tris (2-Amino-2-(hydroxymethyl)propane-1,3-diol) pH 8.0, 150 mM NaCl, 2 mM dithiothreitol and 5% glycerol, and was frozen at −80° C. for later use. HPK1 dual phosphorylation was confirmed by mass spectrometry.Ten nanoliters of test compounds dissolved in DMSO at various concentrations were dispensed into a 384-well ProxiPlate (PerkinElmer #6008289). Five microliters of a solution of recombinant HPK1 diluted in HPK1 kinase assay buffer (50 mM BES [N,N-Bis(2-hydroxyethyl)-2-aminoethanesulfonic acid], pH 7.0; 10 mM magnesium chloride; 0.01% Triton X-100; 1 mM dithiothreitol; 0.01% bovine serum albumin; 0.1 mM sodium orthovanadate) was added to the compound-containing plate and was incubated for 15 minutes at 25° C. Five microliters of a mixture of ATP (Sigma-Aldrich #A6559) and peptide substrate STK S1 (Cisbio #61ST1BLC) diluted in HPK1 kinase assay buffer was then added to start the reaction. […]

Sequence of Mitogen-activated protein kinase kinase kinase kinase 1 (Q92918 whole entry, the tested form may be a part): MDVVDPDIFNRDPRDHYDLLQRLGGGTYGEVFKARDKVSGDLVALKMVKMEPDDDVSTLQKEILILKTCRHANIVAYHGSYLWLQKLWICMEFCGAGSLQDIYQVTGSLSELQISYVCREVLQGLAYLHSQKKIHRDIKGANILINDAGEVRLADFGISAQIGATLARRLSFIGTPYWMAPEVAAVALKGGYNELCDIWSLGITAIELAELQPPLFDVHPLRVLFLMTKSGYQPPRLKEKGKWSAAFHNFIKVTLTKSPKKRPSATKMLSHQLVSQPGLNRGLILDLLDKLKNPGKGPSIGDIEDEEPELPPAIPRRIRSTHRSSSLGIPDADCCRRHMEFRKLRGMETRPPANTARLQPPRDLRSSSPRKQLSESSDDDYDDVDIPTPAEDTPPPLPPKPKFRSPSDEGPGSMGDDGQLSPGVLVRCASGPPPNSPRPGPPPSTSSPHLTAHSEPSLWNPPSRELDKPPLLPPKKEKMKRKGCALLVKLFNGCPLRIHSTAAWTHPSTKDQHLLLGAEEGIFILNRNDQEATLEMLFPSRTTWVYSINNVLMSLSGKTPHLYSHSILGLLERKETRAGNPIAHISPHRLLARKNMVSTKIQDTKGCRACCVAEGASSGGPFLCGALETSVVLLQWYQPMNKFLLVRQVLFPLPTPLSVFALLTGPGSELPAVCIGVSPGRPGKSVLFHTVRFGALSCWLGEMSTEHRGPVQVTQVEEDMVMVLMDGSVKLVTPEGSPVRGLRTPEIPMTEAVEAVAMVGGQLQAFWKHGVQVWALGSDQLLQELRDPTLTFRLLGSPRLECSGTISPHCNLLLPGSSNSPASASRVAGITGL

IC50 [nM]	SMILES
0.2	CC(C)n1cnc2cc(-c3ccc4c(c3)N([C@H]3C[C@@H](N5CCC(C)(C)C5)C3)C(=O)C43CCN(C(=O)[C@H]4CC[C@@H](C)O4)CC3)nc(Nc3ccncc3F)c21
0.3	CC(C)n1cnc2cc(-c3ccc4c(c3)N([C@H]3C[C@@H](N5CCC(C)(C)C5)C3)C(=O)C43CCN(C(=O)[C@@H]4OCC[C@@H]4C)CC3)nc(Nc3ccncc3F)c21
